Reference: US20230257377A1, “2-AMINOQUINAZOLINONE DERIVATIVES AS METHIONINE ADENOSYLTRANSFERASE 2A INHIBITORS” (IDEAYA BIOSCIENCES, INC., priority 2020, published 2023)

Experiments:
Human MAT2A [1] = biological target: T1, Human MAT2A (Homo sapiens, UniProt P31153); test: Phosphate Sensor Fluorescence Assay (Biologic Example A); type: biochemical; details: MAT2A inhibition, procedure of Biological Example A; 500 uM L-methionine, 500 uM ATP, 0.1% BGG
T1 construct: Human MAT2A: Cepter, amino acids 1-395 Clone ID 334, lot 00023-148; purchased Cepter clone ID 334, lot 00023-148
Protocol: (§1) The ability of the compound of present disclosure to inhibit MAT2A enzyme was determined using a Phosphate Sensor Fluorescence Assay described below.
(§2) MAT2A enzyme is incubated with a test compound in DMSO or DMSO and its substrates (L-methionine and ATP) in a microtiter plate. The enzymatic reaction is stopped by the addition of Working Phosphate Sensor Mixture. The plate is analyzed for fluorescence at 450 nm. The high control (DMSO with enzyme and its substrates) gives high fluorescence which represents no inhibition of enzymatic activity while the low control (DMSO with MAT2A substrates and no enzyme) gives low fluorescence which represents full inhibition of enzymatic activity.
Human MAT2A: Cepter, amino acids 1-395
Assay Buffer: 50 mM Tris, pH 7.5/50 mM KCl/10 mM MgCl2/0.01% Brij-35/1 mM DTT/0.1% BGG/40 nM PNP/6 uM 7-MEG
MAT2A: 10 nM for Cepter clone ID 329, lot 00023-123 before the addition of Working Phosphate Sensor Mixture • 5 nM for Cepter clone ID 334, lot 00023-148 before the addition of Working Phosphate Sensor Mixture
(§3) L-methionine: 500 uM before the addition of Working Phosphate Sensor Mixture
(§4) ATP: 500 uM before the addition of Working Phosphate Sensor Mixture
(§5) For the assay, a mixture of 1 mM L-methionine/1 mM ATP (2× final pre-stopped concentration) in assay buffer; MAT2A (2× final pre-stopped concentration) in Assay Buffer and Working Phosphate Sensor Mixture (1.5 uM Phosphate Sensor/30 mM EDTA in Assay Buffer, which is 3× final concentrations) were prepared. Test compounds or DMSO were added to the appropriate well suing D300e digital dispenser. 5 μl/well of Assay Buffer was added to the wells corresponding to the negative control and 5 μl/well of MAT2A was added to all the wells except for those corresponding to the negative control. After incubating the plate at room temperature for 15 minutes, 5 μl/well of the 1 mM L-methionine/1 mM ATP mixture was added to all wells. The plate was centrifuged at 1000 rpm for 1 minute and then incubated at room temperature for 1 hour. 5 μl of the Working Phosphate Sensor Mixture was added to all wells and the plate was centrifuged at 1000 rpm for 1 minute. The plate was read for fluorescence at 450 nm after exciting at 430 nm.
(§6) Percent inhibition was calculated in Chemical and Biological Information System (CBIS), (ChemInnovation Software Inc.). Curves were fitted by CBIS as % inhibition vs. log [compound concentration] using a 4-parameter inhibition model.
(§7) Fit=(A+((B−A)/(1+((C/x)^D))))

Human MAT2A [2] = biological target: T1, Human MAT2A; test: Phosphate Sensor Fluorescence Assay (Biologic Example B); type: biochemical; details: MAT2A inhibition, procedure of Biological Example B; 5.8 nM MAT2A, 500 uM L-methionine, 500 uM ATP, 0.01% BGG
Protocol: as §1, §2
MAT2A: 5.8 nM MAT2A (1-395), Cepter, clone ID 334, lot 00023-148 before the addition of Working Phosphate Sensor Mixture
as §3, §4
as §5, with “(2X” for “(2×”, “3X” for “3×”, “using a Beckman Coulter Echo 550 acoustic liquid handler. 10 μL/well” for “suing D300e digital dispenser. 5 μl/well”, “10 μL/well” for “5 μl/well”, “10 μL” for “5 μl”, “nm on a Tecan Spark microplate reader.” for “nm.”
as §6, §7

T1 sequence (P31153 whole entry, the tested form may be a part): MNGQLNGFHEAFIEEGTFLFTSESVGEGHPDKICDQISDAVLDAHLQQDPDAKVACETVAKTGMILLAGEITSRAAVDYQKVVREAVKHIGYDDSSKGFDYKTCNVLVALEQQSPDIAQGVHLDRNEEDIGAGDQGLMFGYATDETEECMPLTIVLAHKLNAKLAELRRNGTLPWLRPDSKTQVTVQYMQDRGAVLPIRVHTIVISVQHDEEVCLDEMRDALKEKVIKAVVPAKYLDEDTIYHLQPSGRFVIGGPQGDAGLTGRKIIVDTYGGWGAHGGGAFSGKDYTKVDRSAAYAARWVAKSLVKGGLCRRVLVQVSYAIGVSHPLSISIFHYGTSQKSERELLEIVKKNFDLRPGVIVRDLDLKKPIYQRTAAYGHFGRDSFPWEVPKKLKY

Row | IC50 (Human MAT2A [1]) | IC50 (Human MAT2A [2]) | SMILES
1 | 10 to 200 nM | – | Nc1nc(=O)c(-c2ccccc2)c2cc(C(F)(F)F)ccn12 [Compound 1.001, 1-amino-4-phenyl-6-(trifluoromethyl)-3H-pyrido[1,2-c]pyrimidin-3-one]
2 | 10 to 200 nM | – | Cc1ccccc1-c1c(=O)nc(N)n2ccc(C(F)(F)F)cc12 [Compound 1.002, 1-amino-4-(o-tolyl)-6-(trifluoromethyl)-3H-pyrido[1,2-c]pyrimidin-3-one]
3 | 10 to 200 nM | – | Nc1nc(=O)c(-c2ccccc2Cl)c2cc(C(F)(F)F)ccn12 [Compound 1.003, 1-amino-4-(2-chlorophenyl)-6-(trifluoromethyl)-3H-pyrido[1,2-c]pyrimidin-3-one]
4 | 200 to 500 nM | – | COc1cc(C(F)(F)F)cc2c(-c3ccccc3C)c(=O)nc(N)n12 [Compound 1.004, 1-amino-8-methoxy-4-(o-tolyl)-6-(trifluoromethyl)-3H-pyrido[1,2-c]pyrimidin-3-one]
5 | – | 10 to 200 nM | Nc1nc(=O)c(-c2cccnc2)c2cc(C(F)(F)F)ccn12 [Compound 1.005, 1-Amino-4-(pyridin-3-yl)-6-(trifluoromethyl)-3H-pyrido[1,2-c]pyrimidin-3-one]
6 | – | 10 to 200 nM | Cn1nccc1-c1c(=O)nc(N)n2ccc(C(F)(F)F)cc12 [Compound 1.006, 1-Amino-4-(1-methyl-TH-pyrazol-5-yl)-6-(trifluoromethyl)-3H-pyrido[1,2-c]pyrimidin-3-one]
7 | – | 10 to 200 nM | Nc1nc(=O)c(-c2ccccc2)c2cc(Br)ccn12 [Compound 1.007, 1-Amino-6-bromo-4-phenyl-3H-pyrido[1,2-c]pyrimidin-3-one]
8 | – | 10 to 200 nM | Cc1ccccc1-c1c(=O)nc(N)n2ccc(Br)cc12 [Compound 1.008, 1-Amino-6-bromo-4-(o-tolyl)-3H-pyrido[1,2-c]pyrimidin-3-one]
9 | – | 1000 to 10000 nM | CC(=O)Nc1nc(=O)c(-c2ccccc2)c2cc(C(F)(F)F)ccn12 [Compound 1.009, N-(3-oxo-4-phenyl-6-(trifluoromethyl)-3H-pyrido[1,2-c]pyrimidin-1-yl)acetamide]
10 | – | 10 to 200 nM | CCCNc1nc(=O)c(-c2ccccc2)c2cc(C(F)(F)F)ccn12 [Compound 1.010, 4-Phenyl-1-(propylamino)-6-(trifluoromethyl)-3H-pyrido[1,2-c]pyrimidin-3-one]
11 | – | 10 to 200 nM | CNc1nc(=O)c(-c2ccccc2)c2cc(C(F)(F)F)ccn12 [Compound 1.011, 1-(Methylamino)-4-phenyl-6-(trifluoromethyl)-3H-pyrido[1,2-c]pyrimidin-3-one]
